This is an account of results in ChEMBL document CHEMBL5257084, “Novel inhibitors of Rickettsia prowazekii methionine aminopeptidase from the Malaria Box” (Bioorg Med Chem Lett, 2023).

The nature of test [1]: Inhibition of Rickettsia prowazekii Methionine aminopeptidase 1. The format is single protein.
A further test deals with Rickettsia prowazekii. Put plainly: Inhibition of Rickettsia prowazekii Methionine aminopeptidase 1 at 10 uM relative to control.

Take `CC(C)OCc1cc(CN2CCN(c3cccc(Cl)c3)CC2)c(O)c2ncccc12`: the IC50 in test [1] came to 3.8 µM. The same compound showed an inhibition in the test on Rickettsia prowazekii greater than 50%.

Compound `c1ccc(Cn2c(/N=N/c3c(Nc4ccccc4)ccc4ccccc34)nc3ccccc32)cc1` returned an IC50 in test [1] of 1.9 µM. The same compound displayed an inhibition in the test on Rickettsia prowazekii greater than 50%.

Take `COc1ccc(/C=C2\SC(=N)N(c3ccccc3OC)C2=O)cc1`: the IC50 in test [1] was found to be 4.4 µM. In the test on Rickettsia prowazekii, this compound registered an inhibition greater than 50%.

In test [1], `COc1ccc(C2=C(c3ccc(OC)cc3)C3(c4ccccc4)C(=O)C2(c2ccccc2)C2C(=O)N(c4ccc(C)cc4)C(=O)C23)cc1` (stereo not given) yielded an IC50 of 4 µM. For the same compound, in the test with Rickettsia prowazekii, the inhibition is greater than 50%.

The compound `O=C(O)c1ccc(-c2ccccc2Cl)o1` returned an IC50 in test [1] of 2.4 µM. In other words, the single-digit micromolar range.

The compound `Cc1ccc(N2C3c4ccccc4N(S(=O)(=O)c4ccc(C)cc4)C2c2ccccc2N3S(=O)(=O)c2ccc(C)cc2)cc1` came in with an IC50 in test [1] of 0.8 µM. The compound also gave an inhibition with Rickettsia prowazekii greater than 50%.

With `COc1cccc(NC(=O)[C@H](C(C)C)n2c(=O)[nH]c3ccccc3c2=O)c1`, the IC50 in test [1] worked out at 22 µM. In the test on Rickettsia prowazekii, this compound had an inhibition greater than 50%.

In the case of `COc1ccc(-c2c(C)nn3c(N)c(C#N)cnc23)cc1OC`, the IC50 in test [1] came out at 9 µM. Besides, the inhibition in the test on Rickettsia prowazekii was greater than 50%.

The compound `O=C(NC(c1ccccc1)c1ccc2cccnc2c1O)c1ccccc1` (stereo not given) showed an IC50 in test [1] of 12 µM. The compound also yielded an inhibition in the test on Rickettsia prowazekii greater than 50%.

The compound `O=C(NCC(c1ccsc1)N1CCCCCC1)c1ccc(C(F)(F)F)cc1` (stereo not given) displayed an IC50 in test [1] of 15 µM. Moreover, the inhibition with Rickettsia prowazekii was greater than 50%.

In turn, `CSC1=N/C(=N\c2c(C)cccc2C)C2(CCC(C(C)(C)C)CC2)N1c1ccc(Cl)cc1` (stereo not given) gave an IC50 in test [1] of 9 µM. For the same compound, the inhibition in the test with Rickettsia prowazekii was greater than 50%.

`CCCc1c(CC)c(=N)c2ccccc2n1C` displayed an IC50 in test [1] of 1.6 µM. In the test with Rickettsia prowazekii, this compound yielded an inhibition greater than 50%.

`CCn1c(CN2CCN(Cc3ccccc3)CC2)nc2cc(NC(=O)c3cccs3)ccc21`: in test [1], the IC50 amounted to 9 µM. The same compound yielded an inhibition with Rickettsia prowazekii greater than 50%.

What is called IC50 is the concentration needed to halve the response being measured. Higher therefore signals a need for much substance. For orientation: inhibition means the share of the control response that was lost under treatment.
